The results in this text go back to EP4242199A1 (priority 2022, dated 2023).

The test system of one experiment is Septoria tritici. Nature of the experiment: Microtest: activity against wheat leaf blotch pathogen Septoria tritici (SEPTTR). Format: cell-based. The settings on record: relative growth vs active compound-free control (100%), 405 nm, 7 days after inoculation, 18°C.
In another experiment the test system is Cercospora sojina. It is filed as cell-based.
The test system of another experiment is Sclerotinia sclerotiorum. It is filed as cell-based.
Experiment [1] concerns Qol (G143A) resistant isolate of Septoria tritici. As to the kind of experiment: Microtest: activity against resistant isolate of Septoria tritici (SEPTTR res). Format: cell-based. Particulars: relative growth vs active compound-free control (100%), 405 nm, 7 days after inoculation, 18°C.
The next experiment relates to Pyricularia oryzae. Format: cell-based. The settings on record: PYRIOR, relative growth vs active compound-free control (100%), 405 nm, 7 days after inoculation, 18°C.
Experiment [2] relates to Puccinia recondita. It is filed as in vivo. The settings on record: for PUCCRT Disease level (%) P1 at 63 ppm: wheat, preventative spray 1 day before inoculation, % diseased leaf area, untreated 82.
In experiment [3] the test system is Puccinia recondita. Format: in vivo. The settings on record: for PUCCRT Disease level (%) K4 at 63 ppm: wheat, curative spray 4 days after inoculation, % diseased leaf area, untreated 85.
Experiment [4] deals with Qol (F129L) resistant isolate of Alternaria solani. As to the kind of experiment: Microtest: activity against resistant isolate of Alternaria solani (ALTESO res). The settings on record: relative growth vs active compound-free control (100%), 405 nm, 7 days after inoculation, 18°C. Format: cell-based.
Experiment [5] has as its system Qol (F129L) resistant isolate of Pyrenophora teres. Nature of the experiment: Microtest: activity against resistant isolate of net blotch pathogen Pyrenophora teres (PYRNTE res). Format: cell-based. The settings on record: relative growth vs active compound-free control (100%), 405 nm, 7 days after inoculation, 18°C.
A further experiment relates to Phytophthora infestans. It is filed as cell-based. Particulars: PHYTIN, relative growth vs active compound-free control (100%), 405 nm, 7 days after inoculation, 18°C.
The test system of a further experiment is Alternaria solani. Format: cell-based.
A further experiment relates to Leptosphaeria nodorum. Nature of the experiment: Microtest: activity against Leptosphaeria nodorum causing wheat leaf spots (LEPTNO). The settings on record: relative growth vs active compound-free control (100%), 405 nm, 7 days after inoculation, 18°C. Format: cell-based.
In experiment [6] the test system is Colletotrichum orbiculare. As to the kind of experiment: Microtest: activity against anthracnose pathogen Colletotrichum orbiculare (COLLLA). It is filed as cell-based. The settings on record: relative growth vs active compound-free control (100%), 405 nm, 7 days after inoculation, 18°C.
Experiment [7] concerns Phakopsora pachyrhizi. As to the kind of experiment: Greenhouse: protective control of soybean rust on soybeans caused by Phakopsora pachyrhizi (PHAKPA P6). It is filed as in vivo. Particulars: spray six days before inoculation, F129L strain, % diseased leaf area, untreated 74.
The test system of experiment [8] is Phakopsora pachyrhizi. As to the kind of experiment: Greenhouse: protective control of soybean rust on soybeans caused by Phakopsora pachyrhizi (PHAKPA P2). Format: in vivo. Particulars: spray 2 days before inoculation, F129L strain, % diseased leaf area, untreated 97.
Where [9] appears, read: ALTESO, relative growth vs active compound-free control (100%), 405 nm, 7 days after inoculation, 18°C.
Setting [10] is: SCLESC, relative growth vs active compound-free control (100%), 405 nm, 7 days after inoculation, 18°C.

Where two headings read alike, the source gives them in different places.

For the molecule `C/C(C#Cc1ccc(Cl)cc1)=N\OCc1ccccc1-n1nnn(C)c1=O` [Compound 1, 1-[2-[[(E)-[3-(4-Chlorophenyl)-1-methyl-prop-2-ynylidene]amino]oxymethyl]phenyl]-4-methyl-tetrazol-5-one], the “Growth (%) at 125 ppm” value in the experiment on Septoria tritici came out at 5%; with Cercospora sojina, 0%; in the experiment on Sclerotinia sclerotiorum, 11%; in experiment [1], 13%; with Pyricularia oryzae, 0%.
Regarding `COc1nn(C)c(=O)n1-c1ccccc1CO/N=C(\C)C#Cc1ccc(Cl)cc1` [Compound 2, 4-[2-[[(E)-[3-(4-Chlorophenyl)-1-methyl-prop-2-ynylidene]amino]oxymethyl]phenyl]-5-methoxy-2-methyl-1,2,4-triazol-3-one], the “PUCCRT Disease level (%) P1 at 16 ppm” value in the experiment with Puccinia recondita [2] stood at 11%. The “PUCCRT Disease level (%) K4 at 16 ppm” value in the experiment with Puccinia recondita [3] worked out at 30%. Also, in the experiment with Pyricularia oryzae, the “Growth (%) at 125 ppm” value is reported as 16%.
Take `COc1nn(C)c(=O)n1-c1ccccc1CO/N=C(\C)C#Cc1cccc(Cl)c1` [Compound 4, 4-[2-[[(E)-[3-(3-Chlorophenyl)-1-methyl-prop-2-ynylidene]amino]oxymethyl]phenyl]-5-methoxy-2-methyl-1,2,4-triazol-3-one]: the “Growth (%) at 125 ppm” value stood at 16% in experiment [4]; 0% in experiment [5]; 0% with Phytophthora infestans; 0% in the experiment with Septoria tritici; 4% with Alternaria solani; 17% in the experiment on Sclerotinia sclerotiorum. Besides, the “Growth (%) at 125 ppm” value with Leptosphaeria nodorum was 7%; in experiment [1], 0%; with Pyricularia oryzae, 0%. In addition, the “PUCCRT Disease level (%) P1 at 16 ppm” value in the experiment on Puccinia recondita [2] is given as 13%. Also, the “PUCCRT Disease level (%) K4 at 16 ppm” value in the experiment with Puccinia recondita [3] stood at 31%.
Take “(E)-4-(3-Chlorophenyl)-N-[[2-[(E)-C-(1,4,2-dioxazin-3-yl)-N-methoxy-carbonimido-yl]phenyl]methoxy]but-3-yn-2-imine [Compound 8]”: the “Growth (%) at 125 ppm” value was 0% with Septoria tritici; 2% in the experiment on Alternaria solani (setting [9]); 19% in the experiment on Sclerotinia sclerotiorum (setting [10]); 2% in the experiment with Leptosphaeria nodorum; 0% in experiment [6]; 0% with Pyricularia oryzae. Further, the “PUCCRT Disease level (%) P1 at 63 ppm” value in the experiment on Puccinia recondita [2] turned out to be 0%. Besides, the “PUCCRT Disease level (%) K4 at 63 ppm” value in the experiment with Puccinia recondita [3] came out at 28%. In addition, the “PHAKPA Disease level (%) P6 at 63 ppm” value in the experiment with Phakopsora pachyrhizi [7] is listed as 12%. The “PHAKPA Disease level (%) P2 at 63 ppm” value in the experiment with Phakopsora pachyrhizi [8] worked out at 7%.
In the case of “(E)-4-(4-chlorophenyl)-N-[[2-[(E)-C-(1,4,2-dioxazin-3-yl)-N-methoxy-carbonimidoyl]-phenyl]methoxy]but-3-yn-2-imine [Compound 7]”, the “Growth (%) at 125 ppm” value amounted to 0% in the experiment on Septoria tritici; 1% in the experiment with Alternaria solani (setting [9]); 1% with Sclerotinia sclerotiorum (setting [10]); 0% in the experiment on Leptosphaeria nodorum; 0% in experiment [6]; 0% in the experiment with Pyricularia oryzae. Also, the “PUCCRT Disease level (%) P1 at 63 ppm” value with Puccinia recondita [2] turned out to be 13%. Further, the “PUCCRT Disease level (%) K4 at 63 ppm” value in the experiment with Puccinia recondita [3] stood at 53%. In the experiment with Phakopsora pachyrhizi [7], the “PHAKPA Disease level (%) P6 at 63 ppm” value came to 32%. The “PHAKPA Disease level (%) P2 at 63 ppm” value in the experiment on Phakopsora pachyrhizi [8] came to 33%.
For “Ethyl N-[2-[[(E)-[3-(3-chlorophenyl)-1-methyl-prop-2-ynylidene]amino]oxymethyl]-phenyl]-N-methoxy-carbamate [Compound 6]”, the “Growth (%) at 125 ppm” value in [5] was 0%; in the experiment with Septoria tritici, 0%; in the experiment on Alternaria solani (setting [9]) it was 0%; in the experiment on Sclerotinia sclerotiorum (setting [10]) it was 17%; with Leptosphaeria nodorum, 0%; in [6] it was 0%. Moreover, the “Growth (%) at 125 ppm” value in the experiment on Pyricularia oryzae is on record as 0%. The “PUCCRT Disease level (%) P1 at 63 ppm” value in the experiment on Puccinia recondita [2] is 7%. In addition, the “PUCCRT Disease level (%) K4 at 63 ppm” value in the experiment with Puccinia recondita [3] was found to be 50%. In the experiment on Phakopsora pachyrhizi [7], the “PHAKPA Disease level (%) P6 at 63 ppm” value worked out at 13%. Further, in the experiment with Phakopsora pachyrhizi [8], the “PHAKPA Disease level (%) P2 at 63 ppm” value was 11%.
For the molecule “Ethyl N-[2-[[(E)-[3-(4-chlorophenyl)-1-methyl-prop-2-ynylidene]amino]oxymethyl]-phenyl]-N-methoxy-carbamate [Compound 5]”, the “Growth (%) at 125 ppm” value in experiment [5] is 0%; with Septoria tritici, 0%; in the experiment on Alternaria solani (setting [9]), 10%; with Sclerotinia sclerotiorum (setting [10]), 12%; in the experiment on Leptosphaeria nodorum, 0%; in experiment [6] it was 0%. The “Growth (%) at 125 ppm” value in the experiment on Pyricularia oryzae was determined as 0%. Also, in the experiment on Puccinia recondita [2], the “PUCCRT Disease level (%) P1 at 63 ppm” value was 10%. For the same molecule, the “PUCCRT Disease level (%) K4 at 63 ppm” value in the experiment with Puccinia recondita [3] was 70%. For the same molecule, the “PHAKPA Disease level (%) P6 at 63 ppm” value in the experiment with Phakopsora pachyrhizi [7] was 48%. Moreover, the “PHAKPA Disease level (%) P2 at 63 ppm” value with Phakopsora pachyrhizi [8] came out at 43%.
